Source: US20070219128A1, “Medical and health-care uses of pufferfish type I collagen extract and processes for producing said extract” (NANJING BESSON PHARMACY CO., LTD, priority 2003, published 2007)

Key:
[1] = test system: acetic acid-burn induced gastric ulcer in rats; test: Acetic acid-burn induced gastric ulcer in rats; format: in vivo; conditions: 80 mg/kg, ig; mean ± SD
Procedure: 50 SD rats with a body weight of 180 to 200 g and equal numbers of female and male were provided by the Experimental Animal Center of Nanjing Medical University, and the tests were conducted according to the methods in “Collection of Guidelines for Preclinical Studies Of New Drugs (Western Medicines)” edited by China Ministry of Health.

[2] = test system: pylorus-ligated Shay rat gastric ulcer; test: Pylorus-ligated Shay rat gastric ulcer; format: in vivo, SD rats; conditions: 80 mg/kg, ig; mean ± SD
Procedure: 50 SD rats with a body weight of 180 to 200 g and equal numbers of female and male were provided by the Experimental Animal Center of Nanjing Medical University, and the tests were conducted according to the methods in “Collection of Guidelines for Preclinical Studies of New Drugs (Western Medicines)” edited by China Ministry of Health.

[3] = test system: mouse gastric emptying; test: Mouse gastric emptying (phenol red method); format: in vivo, Kunming mice; conditions: 0.1 mg/kg; mean ± SD
Procedure: 105 Kunming mice with a body weight of from 20 to 25 g and equal numbers of male and female were used. The test was conducted according to the methods in “Collection of Guidelines for Preclinical Studies of New Drugs (Western Medicines)” edited by China Ministry of Health, and the phenol red method (Shi G., et al. Gut, 41:612-618, 1997).

[4] = test system: TNBS-induced rat colonitis; test: TNBS-induced rat colonitis; format: in vivo, SD rats; conditions: 0.3 g/kg, intragastric for 7 days; mean ± SD
Procedure: The test was counted according to the method in the document (Morris, C. P. et al: Gastroenterology. 1989, 96:795-803). TNBS was commercially available from Sigma Company. SD rats were subjected to rectoclysis of 100 mg/kg of TNBS to form models of colonitis. Each group included 10 rats. From the 14th day after the models had been made, the rats were intragastrically administrated for 7 days. The rats were killed by drawing their necks and were dissected, and their colon sections were histopathologically observed.

[5] = test system: acetic acid-induced rat colonitis; test: 10% acetic acid-induced rat ulcerative colonitis; format: in vivo, SD rats; conditions: 10 mg/kg, mean ± SD
Procedure: The test was conducted according to the method in the document (Ritzpatrick, R. et al., Agents Actions. 1990, 30:393-402). SD rats were subjected to rectoclysis to form models of colonitis. From the 4th day after the models had been made, the rats were intragastrically administrated for 4 days.

[6] = test system: cysteamine-induced rat duodenal ulcer; test: Cysteamine-induced rat duodenal ulcer; format: in vivo, SD rats; conditions: 20 mg/kg
Procedure: 50 male SD rats with a body weight of 250 to 300 g were used, and cysteamine was commercially available from Sigma Company. The tests were conducted according to the methods in “Drug Discovery and Evaluation—Pharmacological Assays” (H. G. Vogel, W. H. Vogel. Chinese version, translated by Du Guanhua, published by Science Publishing House).

[7] = test system: anhydrous ethanol-induced rat gastric mucosa damage; test: Anhydrous ethanol-induced rat gastric mucosa damage; format: in vivo, SD rats; conditions: 100 mg/kg, ig; mean ± SD
Procedure: 60 SD rats with equal numbers of female and male were provided by the Experimental Animal Center of Nanjing Medical University, and the tests were conducted according to the methods in “Collection of Guidelines for Preclinical Studies of New Drugs (Western Medicines)” edited by China Ministry of Health.

[8] = test system: PGE2 content in gastric mucosa; test: PGE2 content in gastric mucosa of rat with indomethacin-induced gastric ulcer (radioimmunoassay); format: in vivo, SD rats; conditions: 100 mg/kg; mean ± SD
Procedure: 60 SD rats with a body weight of 180 to 200 g and equal numbers of male and female were used, Indomethacin was commercially available from Sigma Company. The PGE2 content was measured by radioimmunoassay. The tests were conducted according to the methods in “Drug Discovery and Evaluation—Pharmacological Assays” (H. G. Vogel, W. H. Vogel. Chinese version, translated by Du Guanhua, published by Science Publishing House).

CN/C(=N/CCSCc1nc[nH]c1C)NC#N [Cimetidine]
Ulcer area (mm^2) [1]: 44.7 ± 38.4 mm^2
Ulcer index [2]: 15.8 ± 1.5

CN(C)C(=O)Oc1ccc[n+](C)c1 [Pyridostigmine bromide]
Amount of residual phenol red in stomach [3]: 0.47 ± 0.36 mg
Gastric emptying ratio (%) [3]: 93.8 ± 4.8 %

O=C(O)c1cc(/N=N/c2ccc(S(=O)(=O)Nc3ccccn3)cc2)ccc1O [Sulfasalazine]
Increment of body weight [4]: 68.89 ± 21.64

NC(N)=Nc1nc(CSCCC(N)=NS(N)(=O)=O)cs1 [Famotidine]
Score of ulcer index ([5]; intragastric for 4 days): 4.14 ± 3.76
Ratio of bowel weight to body weight (×10^−2) [5]: 0.92 ± 0.45 ×10^−2
Inhibition ratio (%) [6]: 27.27%
Ulcer index ([6]; mean ± SD): 2.0 ± 1.3

Bismuth Potassium Citrate
Ulcer index [7]: 15.0 ± 6.0
PGE2 (pg/mg protein) [8]: 170 ± 104 pg/mg protein
